Laboratory results reported in paper PMC9386204, “Design, synthesis, and in silico studies of quinoline-based-benzo[d]imidazole bearing different acetamide derivatives as potent α-glucosidase inhibitors” (Scientific Reports, 2022).

How the values were obtained:
[1] = Concentrations of precipitation; assay type: physicochemical
From the text: Table 1 α-Glucosidase inhibitory activity of compounds 9a–r. | column: Concentrations of precipitation (µM)

α-glucosidase [2] = target: T1, α-glucosidase (Saccharomyces cerevisiae, UniProt P53341); experiment: α-Glucosidase inhibitory assay; conditions: for IC50: α-glucosidase inhibition, mean ± SD
T1 sequence (P53341 whole entry): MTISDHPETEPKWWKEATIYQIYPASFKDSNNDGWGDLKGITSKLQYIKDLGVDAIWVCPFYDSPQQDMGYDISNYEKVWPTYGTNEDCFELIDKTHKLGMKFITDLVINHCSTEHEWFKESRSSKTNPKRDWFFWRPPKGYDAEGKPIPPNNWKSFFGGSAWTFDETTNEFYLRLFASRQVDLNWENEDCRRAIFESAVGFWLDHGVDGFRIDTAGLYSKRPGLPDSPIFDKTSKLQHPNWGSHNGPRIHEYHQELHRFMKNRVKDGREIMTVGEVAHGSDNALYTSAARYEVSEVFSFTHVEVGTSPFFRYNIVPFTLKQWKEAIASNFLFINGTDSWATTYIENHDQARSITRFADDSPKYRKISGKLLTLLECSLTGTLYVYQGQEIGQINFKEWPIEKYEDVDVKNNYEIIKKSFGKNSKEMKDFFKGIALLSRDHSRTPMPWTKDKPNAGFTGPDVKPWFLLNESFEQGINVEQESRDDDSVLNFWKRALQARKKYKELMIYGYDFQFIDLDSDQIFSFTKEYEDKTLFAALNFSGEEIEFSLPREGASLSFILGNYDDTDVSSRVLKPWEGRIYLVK
Method: The α-glucosidase inhibitory activities of all synthesized derivatives were assayed according to the previously reported procedure[9],[36].

α-glucosidase [3] = target: T1, α-glucosidase; experiment: Enzyme kinetic studies (Lineweaver–Burk plot, secondary plot); assay type: biochemical; conditions: Km increased, Vmax unchanged
Method: A Lineweaver–Burk plot was generated to identify the type of inhibition and the Michaelis–Menten constant (Km) value was determined from the plot between reciprocal of the substrate concentration (1/[S]) and reciprocal of enzyme rate (1/V) over various inhibitor concentrations. The experimental inhibitor constant (Ki) value was constructed by secondary plots of the inhibitor concentration [I] versus Km[6].

Row | Concentrations of precipitation [1] | melting point | fold loss of potency compared to 9a (α-glucosidase [2]; versus 9a) | type of inhibition (α-glucosidase [3]) | Compound | IC50 (α-glucosidase [2])
1 | ≥ 200 µM | 185 to 187 °C |  |  | O=C(CSc1nc2ccccc2cc1-c1nc2ccccc2[nH]1)Nc1ccc(Br)cc1 [Compound 9g, 2-((3-(1H-benzo[d]imidazol-2-yl)quinolin-2-yl)thio)-N-(4-bromophenyl)acetamide] | 
2 | ≥ 200 µM | 185 to 187 °C |  |  | O=C(CSc1nc2ccccc2cc1-c1nc2ccccc2[nH]1)Nc1ccc(Cl)cc1 [Compound 9e, 2-((3-(1H-benzo[d]imidazol-2-yl)quinolin-2-yl)thio)-N-(4-chlorophenyl)acetamide] | 
3 | ≥ 200 µM | 181 to 183 °C |  |  | O=C(CSc1nc2ccccc2cc1-c1nc2ccccc2[nH]1)Nc1ccccc1Br [Compound 9f, 2-((3-(1H-benzo[d]imidazol-2-yl)quinolin-2-yl)thio)-N-(2-bromophenyl)acetamide] | 
4 | ≥ 200 µM |  |  |  | O=C(CSc1nc2ccccc2cc1-c1nc2ccccc2[nH]1)Nc1ccccc1 [Compound 9a, 2-((3-(1H-benzo[d]imidazol-2-yl)quinolin-2-yl)thio)-N-phenylacetamide] | 
5 | ≥ 200 µM | 191 to 193 °C |  |  | COc1ccc(NC(=O)CSc2nc3ccccc3cc2-c2nc3ccccc3[nH]2)cc1 [Compound 9l, 2-((3-(1H-benzo[d]imidazol-2-yl)quinolin-2-yl)thio)-N-(4-methoxyphenyl)acetamide] | 
6 | ≥ 200 µM | 181 to 183 °C |  |  | Cc1ccc(NC(=O)CSc2nc3ccccc3cc2-c2nc3ccccc3[nH]2)cc1 [Compound 9k] | 
7 | ≥ 200 µM | 178 to 180 °C |  |  | CCc1ccc(NC(=O)CSc2nc3ccccc3cc2-c2nc3ccccc3[nH]2)cc1 [Compound 9m, 2-((3-(1H-benzo[d]imidazol-2-yl)quinolin-2-yl)thio)-N-(4-ethylphenyl)acetamide] | 
8 | ≥ 200 µM | 180 to 182 °C |  |  | O=C(CSc1nc2ccccc2cc1-c1nc2ccccc2[nH]1)Nc1ccc([N+](=O)[O-])cc1 [Compound 9i, 2-((3-(1H-benzo[d]imidazol-2-yl)quinolin-2-yl)thio)-N-(4-nitrophenyl)acetamide] | 
9 | ≥ 200 µM | 190 to 192 °C |  | competitive inhibition | O=C(CSc1nc2ccccc2cc1-c1nc2ccccc2[nH]1)Nc1cccc(Cl)c1 [Compound 9d, 2-((3-(1H-benzo[d]imidazol-2-yl)quinolin-2-yl)thio)-N-(3-chlorophenyl)acetamide] | 
10 | ≥ 200 µM |  |  |  | O=C(CSc1nc2ccccc2cc1-c1nc2ccccc2[nH]1)Nc1ccc2ccccc2c1 [Compound 9p, 2-((3-(1H-benzo[d]imidazol-2-yl)quinolin-2-yl)thio)-N-(naphthalen-2-yl)acetamide] | 17.7 ± 0.8 µM

More lines, now with the values behind:

Row | Compound | Concentrations of precipitation [1] | melting point | fold loss of potency compared to 9a (α-glucosidase [2]; versus 9a) | type of inhibition (α-glucosidase [3]) | IC50 (α-glucosidase [2])
11 | Cc1cccc(NC(=O)CSc2nc3ccccc3cc2-c2nc3ccccc3[nH]2)c1C [Compound 9n, 2-((3-(1H-benzo[d]imidazol-2-yl)quinolin-2-yl)thio)-N-(2,3-dimethylphenyl)acetamide] | ≥ 200 µM | 185 to 187 °C |  |  | 
12 | 2-((3-(1H-benzo[d]imidazol-2-yl)naphthalen-2-yl)thio)-N-(4-fluorophenyl)acetamide [Compound 9c] | ≥ 200 µM |  |  |  | 13.5 ± 0.6 µM
13 | O=C(CSc1nc2ccccc2cc1-c1nc2ccccc2[nH]1)Nc1c(Cl)cccc1Cl [Compound 9h, 2-((3-(1H-benzo[d]imidazol-2-yl)quinolin-2-yl)thio)-N-(2,6-dichlorophenyl)acetamide] | ≥ 200 µM | 188 to 190 °C |  |  | 
14 | O=C(CSc1nc2ccccc2cc1-c1nc2ccccc2[nH]1)Nc1ccccc1F [Compound 9b, 2-((3-(1H-benzo[d]imidazol-2-yl)quinolin-2-yl)thio)-N-(2-fluorophenyl)acetamide] | ≥ 200 µM | 183 to 185 °C | around the twofold loss of potency |  | 
15 | Cc1cccc(C)c1NC(=O)CSc1nc2ccccc2cc1-c1nc2ccccc2[nH]1 [Compound 9o, 2-((3-(1H-benzo[d]imidazol-2-yl)quinolin-2-yl)thio)-N-(2,6-dimethylphenyl)acetamide] | ≥ 200 µM | 185 to 187 °C |  |  | 
16 | O=C(CSc1nc2ccccc2cc1-c1nc2ccccc2[nH]1)NCc1ccccc1 [Compound 9q, 2-((3-(1H-benzo[d]imidazol-2-yl)quinolin-2-yl)thio)-N-benzylacetamide] | ≥ 200 µM | 183 to 185 °C |  |  | 
17 | O=C(CSc1nc2ccccc2cc1-c1nc2ccccc2[nH]1)NCc1ccc(F)cc1 [Compound 9r, 2-((3-(1H-benzo[d]imidazol-2-yl)quinolin-2-yl)thio)-N-(4-fluorobenzyl)acetamide] | ≥ 200 µM | 186 to 188 °C |  |  | 
18 | Cc1ccccc1NC(=O)CSc1nc2ccccc2cc1-c1nc2ccccc2[nH]1 [Compound 9j] | ≥ 200 µM |  |  |  | 
